Molecules are shown by their SMILES. ≈ marks a conversion by molar mass, not a printed value.

The results in this text go back to US7078418B1, “1-aziridino-1-hydroxyiminomethyl-derivates, method for the production thereof and medicaments containing said compounds” (priority 1999, dated 2006).

One experiment deals with HT29. Briefly: monolayer cytotoxicity test (modified propidium iodide assay), HT29. Type of experiment: cell-based. Conditions: for IC50 antitumoral activity: Colon. An excerpt: (§1) The compounds pursuant to the invention with the general formula I show antitumoral activity. The antitumoral activities of some compounds pursuant to the invention in the monolayer cytotoxicity test on selected cell lines are shown in Table 1. The low susceptibility of fibroblasts and endothelial cells with the use of the compounds pursuant to the invention is surprising.

For another experiment, the system named is GXF 251L. Briefly: monolayer cytotoxicity test (modified propidium iodide assay), GXF 251L. The format is cell-based. Conditions: Stomach.
From the text: as §1

The next experiment deals with LXFL 529. The experiment is described as follows: monolayer cytotoxicity test (modified propidium iodide assay), LXFL 529. Type of experiment: cell-based. Conditions: Lung.
From the text: as §1

The next experiment has as its system 401 NL. The experiment is described as follows: monolayer cytotoxicity test (modified propidium iodide assay), 401 NL. The following applies: Breast. The format is cell-based.
From the text: as §1

The subject of the next experiment is 944 LL. Briefly: monolayer cytotoxicity test (modified propidium iodide assay), 944 LL. The format is cell-based. Conditions: Kidney.
From the text: as §1

A further experiment concerns 1138 L. The experiment is described as follows: monolayer cytotoxicity test (modified propidium iodide assay), 1138 L. The format is cell-based. Conditions: Uterus.
From the text: as §1

For experiment [1], the system named is 12 tumor cell lines (Table 3). Briefly: cells. Conditions: read-out: mean IC50.
The subject of experiment [2] is 12 tumor cell lines (Table 3). Conditions: mean over 12 cell lines of Table 3.
Setting [3] is: read-out: IC50 antitumoral activity.

Regarding `O/N=C(/C(=N/O)N1CC1)N1CC1` [Compound 1, 1,1′-[1,2-bis(hydroxyimino)-1,2-ethanediyl]bisaziridine], the IC50 (commonly the concentration at which inhibition is half-maximal) in the experiment on HT29 (Homo sapiens, HT-29, Colon, read-out: IC50 antitumoral activity) was 0.486 µg/mL (≈ 2.86 µM); in the experiment on GXF 251L (setting [3]) it was 0.781 µg/mL (≈ 4.59 µM); in the experiment with LXFL 529 (Homo sapiens, read-out: IC50 antitumoral activity) it was 0.441 µg/mL (≈ 2.59 µM); in the experiment on 401 NL (setting [3]) it was 0.04 µg/mL (≈ 0.235 µM); in the experiment with 944 LL (setting [3]), 0.923 µg/mL (≈ 5.42 µM); in the experiment on 1138 L (setting [3]) it was 0.173 µg/mL (≈ 1.02 µM).

`ON=C(c1ccc(C(=NO)N2CC2)o1)N1CC1` [Compound 16, 2,5-Bis(1-aziridino-1-hydroxyiminomethyl)furan]: the IC50 antitumoral activity with HT29 is 0.481 µg/mL (≈ 2.04 µM); in the experiment with GXF 251L, 1.661 µg/mL (≈ 7.03 µM); in the experiment with LXFL 529 it was 0.099 µg/mL (≈ 0.419 µM); in the experiment with 401 NL, 0.039 µg/mL (≈ 0.165 µM); with 944 LL it was 1.359 µg/mL (≈ 5.75 µM); in the experiment with 1138 L, 0.073 µg/mL (≈ 0.309 µM).

For the compound `ON=C(c1ccc(C(=NO)N2CC2)nc1)N1CC1` [Compound 14, 2,5-Bis(1-aziridino-1-hydroxyiminomethyl)pyridine], the IC50 antitumoral activity in the experiment with HT29 was 0.200 µg/mL (≈ 0.809 µM); in the experiment with GXF 251L it was 0.717 µg/mL (≈ 2.9 µM); in the experiment with LXFL 529 it was 0.006 µg/mL (≈ 0.0243 µM); in the experiment with 401 NL, 0.011 µg/mL (≈ 0.0445 µM); in the experiment on 944 LL it was 0.198 µg/mL (≈ 0.801 µM); in the experiment on 1138 L it was 0.034 µg/mL (≈ 0.138 µM).

Turning to `ON=C(c1cccc(C(=NO)N2CC2)c1)N1CC1` [Compound 9, 1,3-Bis(1-aziridino-1-hydroxyiminomethyl)benzene], the IC50 antitumoral activity in the experiment on HT29 was 0.329 µg/mL (≈ 1.34 µM); with GXF 251L, 1.506 µg/mL (≈ 6.12 µM); with LXFL 529, 0.063 µg/mL (≈ 0.256 µM); in the experiment on 401 NL, 0.060 µg/mL (≈ 0.244 µM); in the experiment with 944 LL it was 0.788 µg/mL (≈ 3.2 µM); in the experiment on 1138 L, 0.066 µg/mL (≈ 0.268 µM).

In the case of `ON=C(c1cc(C(=NO)N2CC2)cc(C(=NO)N2CC2)c1)N1CC1` [Compound 10, 1,3,5-Tris(1-aziridino-1-hydroxyiminomethyl)benzene], the IC50 antitumoral activity in the experiment on HT29 turned out to be 0.670 µg/mL (≈ 2.03 µM); with GXF 251L, 3.964 µg/mL (≈ 12 µM); in the experiment with LXFL 529, 0.100 µg/mL (≈ 0.303 µM); in the experiment with 401 NL, 0.043 µg/mL (≈ 0.13 µM); with 944 LL, 0.750 µg/mL (≈ 2.27 µM); in the experiment with 1138 L it was 0.111 µg/mL (≈ 0.336 µM).

`O=c1[nH]cc(F)c(=O)[nH]1` [Compound 5FU, 5-fluorouracil]: the IC50 in experiment [1] is 0.054 µg/mL (≈ 0.415 µM).

In the case of `ON=C(c1cccc(C(=NO)N2CC2)n1)N1CC1` [Compound 6, 2,6-Bis(1-aziridino-1-hydroxyiminomethyl)pyridine], the IC50 antitumoral activity in the experiment on HT29 amounted to 0.117 µg/mL (≈ 0.473 µM); with GXF 251L it was 0.020 µg/mL (≈ 0.0809 µM); with LXFL 529, 0.027 µg/mL (≈ 0.109 µM); in the experiment on 401 NL, 0.207 µg/mL (≈ 0.837 µM); in the experiment with 944 LL, 0.115 µg/mL (≈ 0.465 µM); in the experiment on 1138 L, 0.014 µg/mL (≈ 0.0566 µM). Also, the “mean IC50” value in experiment [2] was 0.030 µg/mL.

As to `ON=C(c1ccc(C(=NO)N2CC2)cc1)N1CC1` [Compound 7, 1,4-Bis(1-aziridino-1-hydroxyiminomethyl)benzene], the IC50 antitumoral activity with HT29 was determined as 0.258 µg/mL (≈ 1.05 µM); with GXF 251L, 0.542 µg/mL (≈ 2.2 µM); with LXFL 529, 0.038 µg/mL (≈ 0.154 µM); in the experiment with 401 NL it was 0.018 µg/mL (≈ 0.0731 µM); with 944 LL it was 0.348 µg/mL (≈ 1.41 µM); in the experiment on 1138 L it was 0.038 µg/mL (≈ 0.154 µM).
